Data as given in patent publication US20110105509A1 (Wyeth, LLC, priority 2009, published 2011).

molecular target: T1, CRTH2 (Homo sapiens, UniProt Q9Y5Y4); assay: FRET based competitive immunoassay (cAMP) in CRTH2 expressing CHO cells; type: cell-based; settings: CRTH2 expressing CHO cells incubated with forskolin and PGD2; Eu3+ cryptate-labeled anti-cAMP and d2-labeled cAMP
T1 construct: expressed in transfected cells; host or cells: CHO cells
T1 sequence (Q9Y5Y4 1-395): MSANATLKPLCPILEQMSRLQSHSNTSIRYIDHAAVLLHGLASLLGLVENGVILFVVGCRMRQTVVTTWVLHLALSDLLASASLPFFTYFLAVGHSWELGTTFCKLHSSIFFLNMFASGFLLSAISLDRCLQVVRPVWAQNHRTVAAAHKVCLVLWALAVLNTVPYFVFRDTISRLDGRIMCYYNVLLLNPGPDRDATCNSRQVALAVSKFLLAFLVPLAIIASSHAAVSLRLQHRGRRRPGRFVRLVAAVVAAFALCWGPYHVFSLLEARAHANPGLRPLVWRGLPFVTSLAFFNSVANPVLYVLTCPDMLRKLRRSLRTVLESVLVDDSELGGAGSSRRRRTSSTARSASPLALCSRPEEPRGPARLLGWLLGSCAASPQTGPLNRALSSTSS
Protocol: FRET Assay: To evaluate potency compounds were tested in a FRET based competitive immunoassay in which CRTH2 expressing CHO cells were incubated in the presence of forskolin and PGD2 along with Eu3+ cryptate-labeled anti-cAMP and d2-labeled cAMP.

SMILES | IC50
Cc1c(-c2cn(Cc3ccccc3)c(=O)c3c2CCCC3)c2cc(F)ccc2n1CC(=O)O [Example 88, 2-(3-(2-benzyl-1-oxo-1,2,5,6,7,8-hexahydroisoquinolin-4-yl)-5-fluoro-2-methyl-1H-indol-1-yl)acetic acid] | 197 nM
Cc1c(-c2cn(CCCC(F)(F)F)c(=O)c3c2CCCC3)c2cc(F)ccc2n1CC(=O)O [Example 89, 2-(5-fluoro-2-methyl-3-(1-oxo-2-(4,4,4-trifluorobutyl)-1,2,5,6,7,8-hexahydro-isoquinolin-4-yl)-1H-indol-1-yl)acetic acid] | 123 nM
Cc1c(-c2cn(CC(F)(F)F)c(=O)c3c2CCCC3)c2cc(F)ccc2n1CC(=O)O [Example 90, 2-(5-fluoro-2-methyl-3-(1-oxo-2-(2,2,2-trifluoroethyl)-1,2,5,6,7,8-hexahydro-isoquinolin-4-yl)-1H-indol-1-yl)acetic acid] | > 1000 nM
Cc1c(-c2cn(C(C)C)c(=O)c3c2CCCC3)c2cc(F)ccc2n1CC(=O)O [Example 91, 2-(5-fluoro-3-(2-isopropyl-1-oxo-1,2,5,6,7,8-hexahydroisoquinolin-4-yl)-2-methyl-1H-indol-1-yl)acetic acid] | 107 nM
Cc1c(-c2cn(CC(C)(C)O)c(=O)c3c2CCCC3)c2cc(F)ccc2n1CC(=O)O [Example 92, 2-(5-fluoro-3-(2-(2-hydroxy-2-methylpropyl)-1-oxo-1,2,5,6,7,8-hexahydro-iso-quinolin-4-yl)-2-methyl-1H-indol-1-yl)acetic acid] | > 1000 nM
Cc1c(-c2cn(CCc3ccccc3)c(=O)c3c2CCCC3)c2cc(F)ccc2n1CC(=O)O [Example 93, 2-(5-fluoro-2-methyl-3-(1-oxo-2-phenethyl-1,2,5,6,7,8-hexahydro-iso-quinolin-4-yl)-1H-indol-1-yl)acetic acid] | 21 nM
Cc1c(-c2cn(Cc3ccc(F)cc3F)c(=O)c3c2CCCC3)c2cc(F)ccc2n1CC(=O)O [Example 94, 2-(3-(2-(2,4-difluorobenzyl)-1-oxo-1,2,5,6,7,8-hexahydroisoquinolin-4-yl)-5-fluoro-2-methyl-1H-indol-1-yl)acetic acid] | 119 nM
Cc1c(-c2cn(Cc3ccccn3)c(=O)c3ccccc23)c2cc(F)ccc2n1CC(=O)O [Example 95, 2-(5-fluoro-2-methyl-3-(1-oxo-2-(pyridin-2-ylmethyl)-1,2-dihydro-isoquinolin-4-yl)-1H-indol-1-yl)acetic acid] | 9 nM
Cc1c(-c2cn(CCC(C(F)(F)F)C(F)(F)F)c(=O)c3ccccc23)c2cc(F)ccc2n1CC(=O)O [Example 96, 2-(5-fluoro-2-methyl-3-(1-oxo-2-(4,4,4-trifluoro-3-(trifluoromethyl)butyl)-1,2-dihydroisoquinolin-4-yl)-1H-indol-1-yl)acetic acid] | 296 nM
Cc1c(-c2nn(Cc3cccc(F)c3F)c(=O)c3ccccc23)c2cc(Cl)ccc2n1CC(=O)O [Example 97, 2-(5-chloro-3-(3-(2,3-difluorobenzyl)-4-oxo-3,4-dihydrophthalazin-1-yl)-2-methyl-1H-indol-1-yl)acetic acid] | 7 nM
Cc1c(-c2nn(Cc3ccccc3F)c(=O)c3ccccc23)c2cc(Cl)ccc2n1CC(=O)O [Example 98, 2-(5-Chloro-3-(3-(2-fluorobenzyl)-4-oxo-3,4-dihydrophthalazin-1-yl)-2-methyl-1H-indol-1-yl)acetic acid] | 17 nM
Cc1c(-c2nn(Cc3nc4cc(F)ccc4s3)c(=O)c3ccccc23)c2cc(Cl)ccc2n1CC(=O)O [Example 99, 2-(5-chloro-3-(3-((5-fluorobenzo[d]thiazol-2-yl)methyl)-4-oxo-3,4-dihydrophthalazin-1-yl)-2-methyl-1H-indol-1-yl)acetic acid] | 10 nM
Cc1c(-c2nn(Cc3nc4cc(C(F)(F)F)ccc4s3)c(=O)c3ccccc23)c2cc(Cl)ccc2n1CC(=O)O [Example 100, 2-(5-chloro-2-methyl-3-(4-oxo-3-((5-(trifluoromethyl)benzo[d]thiazol-2-yl)-methyl)-3,4-dihydrophthalazin-1-yl)-1H-indol-1-yl)acetic acid] | 81 nM
Cc1c(-c2nn(Cc3c(F)cccc3F)c(=O)c3ccccc23)c2cc(Cl)ccc2n1CC(=O)O [Example 101, 2-(5-chloro-3-(3-(2,6-difluorobenzyl)-4-oxo-3,4-dihydrophthalazin-1-yl)-2-methyl-1H-indol-1-yl)acetic acid] | 10 nM
Cc1c(-c2nn(Cc3ccc(OC(F)(F)F)cc3)c(=O)c3ccccc23)c2cc(Cl)ccc2n1CC(=O)O [Example 102, 2-(5-chloro-2-methyl-3-(4-oxo-3-(4-(trifluoromethoxy)benzyl)-3,4-dihydrophthalazin-1-yl)-1H-indol-1-yl)acetic acid] | 27 nM
Cc1c(-c2nn(Cc3ccc4ccccc4n3)c(=O)c3ccccc23)c2cc(Cl)ccc2n1CC(=O)O [Example 103, 2-(5-chloro-2-methyl-3-(4-oxo-3-(quinolin-2-ylmethyl)-3,4-dihydro-phthalazin-1-yl)-1H-indol-1-yl)acetic acid] | 11 nM
Cc1cc(Cn2nc(-c3c(C)n(CC(=O)O)c4ccc(Cl)cc34)c3ccccc3c2=O)c2ccccc2n1 [Example 104, 2-(5-chloro-2-methyl-3-(3-((2-methylquinolin-4-yl)methyl)-4-oxo-3,4-dihydro-phthalazin-1-yl)-1H-indol-1-yl)acetic acid] | 10 nM
Cc1c(-c2nn(C)c(=O)c3ccccc23)c2cc(Cl)ccc2n1CC(=O)O [Example 105, 2-(5-chloro-2-methyl-3-(3-methyl-4-oxo-3,4-dihydrophthalazin-1-yl)-1H-indol-1-yl)-acetic acid] | 121 nM

The next lines start with the values.

IC50 | SMILES
23 nM | CCn1nc(-c2c(C)n(CC(=O)O)c3ccc(Cl)cc23)c2ccccc2c1=O [Example 106, 2-(5-Chloro-3-(3-ethyl-4-oxo-3,4-dihydrophthalazin-1-yl)-2-methyl-1H-indol-1-yl)acetic acid]
22 nM | Cc1c(-c2nn(CC3CC3)c(=O)c3ccccc23)c2cc(Cl)ccc2n1CC(=O)O [Example 108, 2-(5-chloro-3-(3-(cyclopropylmethyl)-4-oxo-3,4-dihydrophthalazin-1-yl)-2-methyl-1H-indol-1-yl)acetic acid]
42 nM | Cc1c(-c2nn(CC(F)(F)F)c(=O)c3ccccc23)c2cc(Cl)ccc2n1CC(=O)O [Example 109, 2-(5-chloro-2-methyl-3-(4-oxo-3-(2,2,2-trifluoroethyl)-3,4-dihydro-phthalazin-1-yl)-1H-indol-1-yl)acetic acid]
7 nM | Cc1c(-c2nn(Cc3nc4ccccc4s3)c(=O)c3ccccc23)c2cc(F)ccc2n1CC(=O)O [Example 110, 2-(3-(3-(Benzo[d]thiazol-2-ylmethyl)-4-oxo-3,4-dihydrophthalazin-1-yl)-5-fluoro-2-methyl-1H-indol-1-yl)acetic acid]
> 20 nM | Cc1c(-c2nn(Cc3ccc(F)cc3)c(=O)c3ccccc23)c2cc(F)ccc2n1CC(=O)O [Example 111, 2-(5-fluoro-3-(3-(4-fluorobenzyl)-4-oxo-3,4-dihydrophthalazin-1-yl)-2-methyl-1H-indol-1-yl)acetic acid]
19 nM | Cc1c(-c2nn(Cc3cccc(F)c3F)c(=O)c3ccccc23)c2cc(F)ccc2n1CC(=O)O [Example 112, 2-(3-(3-(2,3-difluorobenzyl)-4-oxo-3,4-dihydrophthalazin-1-yl)-5-fluoro-2-methyl-1H-indol-1-yl)acetic acid]
14 nM | Cc1c(-c2nn(Cc3ccccc3F)c(=O)c3ccccc23)c2cc(F)ccc2n1CC(=O)O [Example 113, 2-(5-fluoro-3-(3-(2-fluorobenzyl)-4-oxo-3,4-dihydrophthalazin-1-yl)-2-methyl-1H-indol-1-yl)acetic acid]
13 nM | Cc1c(-c2nn(Cc3nc4cc(F)ccc4s3)c(=O)c3ccccc23)c2cc(F)ccc2n1CC(=O)O [Example 114, 2-(5-fluoro-3-(3-((5-fluorobenzo[d]thiazol-2-yl)methyl)-4-oxo-3,4-dihydro-phthalazin-1-yl)-2-methyl-1H-indol-1-yl)acetic acid]
64 nM | Cc1c(-c2nn(Cc3nc4cc(C(F)(F)F)ccc4s3)c(=O)c3ccccc23)c2cc(F)ccc2n1CC(=O)O [Example 115, 2-(5-fluoro-2-methyl-3-(4-oxo-3-((5-(trifluoromethyl)benzo[d]thiazol-2-yl)-methyl)-3,4-dihydrophthalazin-1-yl)-1H-indol-1-yl)acetic acid]
7 nM | Cc1c(-c2nn(Cc3c(F)cccc3F)c(=O)c3ccccc23)c2cc(F)ccc2n1CC(=O)O [Example 116, 2-(3-(3-(2,6-difluorobenzyl)-4-oxo-3,4-dihydrophthalazin-1-yl)-5-fluoro-2-methyl-1H-indol-1-yl)acetic acid]
22 nM | Cc1c(-c2nn(Cc3ccc(OC(F)(F)F)cc3)c(=O)c3ccccc23)c2cc(F)ccc2n1CC(=O)O [Example 117, 2-(5-fluoro-2-methyl-3-(4-oxo-3-(4-(trifluoromethoxy)benzyl)-3,4-dihydro-phthalazin-1-yl)-1H-indol-1-yl)acetic acid]
9 nM | Cc1c(-c2nn(Cc3ccc4ccccc4n3)c(=O)c3ccccc23)c2cc(F)ccc2n1CC(=O)O [Example 118, 2-(5-fluoro-2-methyl-3-(4-oxo-3-(quinolin-2-ylmethyl)-3,4-dihydro-phthalazin-1-yl)-1H-indol-1-yl)acetic acid]
